Measurements taken from patent US9896710B2, “Glycosyltransferase derived from Dolwoe and use thereof” (KOREA ADVANCED INSTITUTE OF SCIENCE AND TECHNOLOGY, priority 2014, dated 2018).

Test system: UDP-glycosyltransferase GpUGT23
Assay: In vitro glycosyltransferase assay of purified recombinant GpUGT23 with ginsenoside substrates and UDP-glucose
Format: biochemical, Dolwoe (Gynostemma pentaphyllum)
Details: purified GpUGT23 30 μg, ginsenoside 5 mM, UDP-glucose 50 mM, 10 mM PBS pH 7, 37° C., 12 hours, products: CK->gypenoside LXXV, F2->gypenoside XVII, Rd->Rb1, F1->notoginsenoside U; for conversion of the ginsenoside by GpUGT23 (glycosyltransfer activity), HPLC: UV 203 nm (FIGS. 3 and 4); for conversion of the ginsenoside by GpUGT23 (glycosyltransfer activity), TLC: TLC (FIG. 2)
Protocol: A glycosyltransferase assay was performed in a reaction buffer (10 mM PBS buffer, pH 7) containing the purified GpUGT23 (30 μg), a ginsenoside compound (5 mM) and UDP-glucose (50 mM). For this assay, 4 different types of ginsenosides, including CK (Compound K), F2, Rd, and F1, were used and reacted with the enzyme of the present invention.
The reaction mixture was incubated at 37° C. for 12 hours, and then the products were analyzed by thin-layer chromatography (TLC) or high performance liquid chromatography (HPLC).
TLC analysis was performed using a mobile phase (acetone:methanol:DDW=65:35:10 vol/vol) and a 60F254 silica gel plate (Merck, Germany). The resolved product on the TLC plate was detected by spraying the plate with 10% (vol/vol) sulfuric acid (H2SO4) and heating it at 110° C. for 5 minutes (FIG. 2).
HPLC analysis was performed using ODS(2) C18 column (Phenomenex, USA). Water and acetonitrile gradient application time and a component ratio are as follows: at a flow rate of 1 mL per minute, at 0 minutes, 68% water and 32% acetonitrile; 8 minutes, 35% water and 65% acetonitrile; 12 minutes, 0% water and 100% acetonitrile; 20 minutes, 0% water and 100% acetonitrile; 20.1 minutes, 68% water and 32% acetonitrile; and 28 minutes, 68% water and 32% acetonitrile (FIGS. 3 and 4).
Ginsenosides were detected by using a UV-detector (Agilent, USA) at a wavelength of 203 nm.
Substrate specificity and regioselectivity of GpUGT23 were examined by the method described in Example 2.
First, the recombinant GpUGT of Example 1, GpUGT23, was reacted with 9 types of ginsenosides (PPD, Rh2, Rg3, CK, F2, Rd, PPT, F1, and Rh1) in the presence of UDP-glucose, and the reaction products of CK, F2, Rd, and F1 were analyzed by TLC (thin-layer chromatography).
To further analyze these, 4 different types of ginsenosides (CK, F2, Rd, and F1) were incubated with GpUGT23, and then the products converted by the recombinant GpUGT23 were analyzed by TLC, and the results are shown in FIG. 2. The results were confirmed by comparing their migrating spots with migrating spots of CK, Gyp75 (gypenoside LXXV), F2, Gyp17 (gypenoside XVII), Rd, Rb1, and F1 used as reference samples.

Q: How did the “conversion of the ginsenoside by GpUGT23 (glycosyltransfer activity), HPLC” value (from here on “conversion of the ginsenoside by GpUGT23 … HPLC”) turn out when `CC(C)=CCCC(C)(O)[C@H]1CC[C@]2(C)[C@@H]1[C@H](O)C[C@@H]1[C@@]3(C)CC[C@H](O)C(C)(C)[C@@H]3CC[C@]12C` (stereo in doubt) [PPD, protopanaxadiol] was run?
A: The value was “did not react”.

Q: For `CC(C)=CCC[C@](C)(O[C@@H]1O[C@H](CO)[C@@H](O)[C@H](O)[C@H]1O)[C@H]1CC[C@]2(C)[C@@H]1[C@H](O)C[C@@H]1[C@@]3(C)CC[C@H](O)C(C)(C)[C@@H]3CC[C@]12C` [CK, Compound K], which “conversion of the ginsenoside by GpUGT23 … HPLC” value is on record?
A: Its value is “converted”.

Q: What about the “conversion of the ginsenoside by GpUGT23 (glycosyltransfer activity), TLC” value (from here on “conversion of the ginsenoside by GpUGT23 … TLC”) of the same molecule?
A: Its value is “converted”.

Q: `CC(C)=CCC[C@](C)(O[C@@H]1O[C@H](CO)[C@@H](O)[C@H](O)[C@H]1O)[C@H]1CC[C@]2(C)[C@@H]1[C@H](O)C[C@@H]1[C@@]3(C)CC[C@H](O)C(C)(C)[C@@H]3[C@@H](O)C[C@]12C` [F1] was tested. Which “conversion of the ginsenoside by GpUGT23 … HPLC” value did it give?
A: Its value is “converted”.

Q: What about the “conversion of the ginsenoside by GpUGT23 … TLC” value of the same molecule?
A: The value was “converted”.

Q: For `CC(C)=CCC[C@](C)(O[C@@H]1O[C@H](CO)[C@@H](O)[C@H](O)[C@H]1O)[C@H]1CC[C@]2(C)[C@@H]1[C@H](O)C[C@@H]1[C@@]3(C)CC[C@H](O[C@@H]4O[C@H](CO)[C@@H](O)[C@H](O)[C@H]4O)C(C)(C)[C@@H]3CC[C@]12C` [F2], which “conversion of the ginsenoside by GpUGT23 … HPLC” value is on record?
A: Its value is “converted”.

Q: What about the “conversion of the ginsenoside by GpUGT23 … TLC” value of the same molecule?
A: Its value is “converted”.

Q: With `CC(C)=CCC[C@](C)(O)[C@H]1CC[C@]2(C)[C@@H]1[C@H](O)C[C@@H]1[C@@]3(C)CC[C@H](O)C(C)(C)[C@@H]3[C@@H](O)C[C@]12C` [PPT, protopanaxatriol] as the molecule, how does the “conversion of the ginsenoside by GpUGT23 … HPLC” value read?
A: Its value is “did not react”.

Q: With `CC(C)=CCC[C@](C)(O[C@@H]1O[C@H](CO)[C@@H](O)[C@H](O)[C@H]1O)[C@H]1CC[C@]2(C)[C@@H]1[C@H](O)C[C@@H]1[C@@]3(C)CC[C@H](O[C@@H]4O[C@H](CO)[C@@H](O)[C@H](O)[C@H]4O[C@@H]4O[C@H](CO)[C@@H](O)[C@H](O)[C@H]4O)C(C)(C)[C@@H]3CC[C@]12C` [Rd] as the molecule, how does the “conversion of the ginsenoside by GpUGT23 … HPLC” value read?
A: The value was “converted”.

Q: And the “conversion of the ginsenoside by GpUGT23 … TLC” value?
A: The value was “converted”.

Q: For `CC(C)=CCC[C@](C)(O)[C@H]1CC[C@]2(C)[C@@H]1[C@H](O)C[C@@H]1[C@@]3(C)CC[C@H](O)C(C)(C)[C@@H]3[C@@H](O[C@@H]3O[C@H](CO)[C@@H](O)[C@H](O)[C@H]3O[C@@H]3O[C@@H](C)[C@H](O)[C@@H](O)[C@H]3O)C[C@]12C` [Rg2], which “conversion of the ginsenoside by GpUGT23 … HPLC” value is on record?
A: The value was “did not transfer a sugar”.

Q: For `CC(C)=CCC[C@](C)(O)[C@H]1CC[C@]2(C)[C@@H]1[C@H](O)C[C@@H]1[C@@]3(C)CC[C@H](O[C@@H]4O[C@H](CO)[C@@H](O)[C@H](O)[C@H]4O[C@@H]4O[C@H](CO)[C@@H](O)[C@H](O)[C@H]4O)C(C)(C)[C@@H]3CC[C@]12C` [Rg3], which “conversion of the ginsenoside by GpUGT23 … HPLC” value is on record?
A: Its value is “did not react”.

Q: `CC(C)=CCC[C@](C)(O)[C@H]1CC[C@]2(C)[C@@H]1[C@H](O)C[C@@H]1[C@@]3(C)CC[C@H](O)C(C)(C)[C@@H]3[C@@H](O[C@@H]3O[C@H](CO)[C@@H](O)[C@H](O)[C@H]3O)C[C@]12C` [Rh1] was tested. Which “conversion of the ginsenoside by GpUGT23 … HPLC” value did it give?
A: Its value is “did not react”.

Q: For `CC(C)=CCC[C@](C)(O)[C@H]1CC[C@]2(C)[C@@H]1[C@H](O)C[C@@H]1[C@@]3(C)CC[C@H](O[C@@H]4O[C@H](CO)[C@@H](O)[C@H](O)[C@H]4O)C(C)(C)[C@@H]3CC[C@]12C` [Rh2], which “conversion of the ginsenoside by GpUGT23 … HPLC” value is on record?
A: The value was “did not react”.
